Experimental data published in PubChem BioAssay (NCI).
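Growth conditions: 96-well plates. Treatment: test compound, 48 hours, 5 concentrations. Analysis: linear interpolation between bracketing concentrations; unreached endpoints set to highest concentration. GI50: concentration for 50% inhibition of growth. At the TGI there is no net growth.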

Experiments:
Experiment in all cases: NCI-60 cell line screen, 48 h; in the data active means GI50 below about 0.43 µM; inactive means the rest
SF-295 CNS = test system: SF-295 CNS
BT-549 breast = test system: BT-549 breast
OVCAR-5 ovarian = test system: OVCAR-5 ovarian
CAKI-1 renal = test system: CAKI-1 renal
SNB-75 CNS = test system: SNB-75 CNS
MDA-MB-435 = test system: MDA-MB-435
SR leukemia = test system: SR leukemia
NCI/ADR-RES ovarian = test system: NCI/ADR-RES ovarian
EKVX NSCLC = test system: EKVX NSCLC
SF-539 CNS = test system: SF-539 CNS
786-0 renal = test system: 786-0 renal
NCI-H460 lung = test system: NCI-H460 lung
HCT-15 colon = test system: HCT-15 colon
HL-60(TB) leukemia = test system: HL-60(TB) leukemia
HCC-2998 colon = test system: HCC-2998 colon
OVCAR-8 ovarian = test system: OVCAR-8 ovarian
U251 CNS = test system: U251 CNS
M14 melanoma = test system: M14 melanoma
RPMI-8226 leukemia = test system: RPMI-8226 leukemia
SN12C renal = test system: SN12C renal
HT29 colon = test system: HT29 colon
HS 578T breast = test system: HS 578T breast
DU-145 prostate = test system: DU-145 prostate
CCRF-CEM leukemia = test system: CCRF-CEM leukemia
RXF 393 renal = test system: RXF 393 renal
A549 NSCLC = test system: A549 NSCLC
SK-MEL-2 melanoma = test system: SK-MEL-2 melanoma
NCI-H522 lung = test system: NCI-H522 lung
MOLT-4 leukemia = test system: MOLT-4 leukemia
MDA-MB-231 breast = test system: MDA-MB-231 breast
NCI-H226 lung = test system: NCI-H226 lung
NCI-H23 lung = test system: NCI-H23 lung
HCT-116 colon = test system: HCT-116 colon
PC-3 prostate = test system: PC-3 prostate
SK-MEL-5 melanoma = test system: SK-MEL-5 melanoma
ACHN renal = test system: ACHN renal
MCF7 breast = test system: MCF7 breast
T-47D breast = test system: T-47D breast
SF-268 CNS = test system: SF-268 CNS
OVCAR-3 ovarian = test system: OVCAR-3 ovarian
KM12 colon = test system: KM12 colon
LOX IMVI melanoma = test system: LOX IMVI melanoma
SK-MEL-28 melanoma = test system: SK-MEL-28 melanoma
UACC-62 melanoma = test system: UACC-62 melanoma
OVCAR-4 ovarian = test system: OVCAR-4 ovarian
A498 renal = test system: A498 renal
UACC-257 melanoma = test system: UACC-257 melanoma
COLO 205 colon = test system: COLO 205 colon
SK-OV-3 ovarian = test system: SK-OV-3 ovarian
HOP-62 NSCLC = test system: HOP-62 NSCLC
SNB-19 CNS = test system: SNB-19 CNS
SW-620 colon = test system: SW-620 colon
K-562 leukemia = test system: K-562 leukemia

O=C1Cc2cc(CCN3CCNCC3)c(Cl)cc2N1
active: GI50 (EKVX NSCLC) 0.358 µM
14.2 µM: TGI (MDA-MB-435)
26.5 µM: TGI (M14 melanoma)
inactive: GI50 (SF-295 CNS) 4.2 µM | GI50 (BT-549 breast) 8.18 µM | GI50 (OVCAR-5 ovarian) 79.2 µM | GI50 (CAKI-1 renal) 6.11 µM | GI50 (SNB-75 CNS) 15.5 µM | GI50 (MDA-MB-435) 2.77 µM | GI50 (SR leukemia) 6.2 µM | GI50 (NCI/ADR-RES ovarian) 5.11 µM | GI50 (SF-539 CNS) > 100 µM | GI50 (786-0 renal) > 100 µM | GI50 (NCI-H460 lung) 22.9 µM | GI50 (HCT-15 colon) 6.23 µM | GI50 (HL-60(TB) leukemia) 43 µM | GI50 (HCC-2998 colon) 46.6 µM | GI50 (OVCAR-8 ovarian) 36.8 µM | GI50 (U251 CNS) 7.79 µM | GI50 (M14 melanoma) 3.02 µM | GI50 (RPMI-8226 leukemia) 6.03 µM | GI50 (SN12C renal) 6 µM | GI50 (HT29 colon) > 100 µM | GI50 (HS 578T breast) 1.57 µM | GI50 (DU-145 prostate) 19.9 µM | GI50 (CCRF-CEM leukemia) 2.98 µM | GI50 (RXF 393 renal) 6.89 µM | GI50 (A549 NSCLC) 6.85 µM | GI50 (SK-MEL-2 melanoma) 15.2 µM | GI50 (NCI-H522 lung) 4.86 µM | GI50 (MOLT-4 leukemia) > 100 µM | GI50 (MDA-MB-231 breast) 3.9 µM | GI50 (NCI-H226 lung) > 100 µM | GI50 (NCI-H23 lung) 46.4 µM | GI50 (HCT-116 colon) 10 µM | GI50 (PC-3 prostate) 98.3 µM | GI50 (SK-MEL-5 melanoma) 5.33 µM | GI50 (ACHN renal) > 100 µM | GI50 (MCF7 breast) 3.65 µM | GI50 (T-47D breast) 29.1 µM | GI50 (SF-268 CNS) 12.7 µM | GI50 (OVCAR-3 ovarian) 14.1 µM | GI50 (KM12 colon) 3.96 µM | GI50 (LOX IMVI melanoma) > 100 µM | GI50 (SK-MEL-28 melanoma) 37 µM | GI50 (UACC-62 melanoma) 6.54 µM | GI50 (OVCAR-4 ovarian) 87.8 µM | GI50 (A498 renal) 2.85 µM | GI50 (UACC-257 melanoma) 6.52 µM | GI50 (COLO 205 colon) 19.7 µM | GI50 (SK-OV-3 ovarian) > 100 µM | GI50 (HOP-62 NSCLC) 19.3 µM | GI50 (SNB-19 CNS) 23.7 µM | GI50 (SW-620 colon) 4.98 µM | GI50 (K-562 leukemia) 6.24 µM
> 100 µM: TGI (SF-295 CNS) | TGI (BT-549 breast) | TGI (OVCAR-5 ovarian) | TGI (CAKI-1 renal) | TGI (SR leukemia) | TGI (NCI/ADR-RES ovarian) | TGI (EKVX NSCLC) | TGI (SF-539 CNS) | TGI (786-0 renal) | TGI (NCI-H460 lung) | TGI (HCT-15 colon) | TGI (HL-60(TB) leukemia) | TGI (HCC-2998 colon) | TGI (OVCAR-8 ovarian) | TGI (U251 CNS) | TGI (RPMI-8226 leukemia) | TGI (SN12C renal) | TGI (HT29 colon) | TGI (HS 578T breast) | TGI (DU-145 prostate) | TGI (CCRF-CEM leukemia) | TGI (RXF 393 renal) | TGI (A549 NSCLC) | TGI (SK-MEL-2 melanoma) | TGI (NCI-H522 lung) | TGI (MOLT-4 leukemia) | TGI (MDA-MB-231 breast) | TGI (NCI-H226 lung) | TGI (NCI-H23 lung) | TGI (HCT-116 colon) | TGI (PC-3 prostate) | TGI (SK-MEL-5 melanoma) | TGI (ACHN renal) | TGI (MCF7 breast) | TGI (T-47D breast) | TGI (SF-268 CNS) | TGI (OVCAR-3 ovarian) | TGI (KM12 colon) | TGI (LOX IMVI melanoma) | TGI (SK-MEL-28 melanoma) | TGI (UACC-62 melanoma) | TGI (OVCAR-4 ovarian) | TGI (A498 renal) | TGI (UACC-257 melanoma) | TGI (COLO 205 colon) | TGI (SK-OV-3 ovarian) | TGI (HOP-62 NSCLC) | TGI (SNB-19 CNS) | TGI (SW-620 colon) | TGI (K-562 leukemia)
75.4 µM: TGI (SNB-75 CNS)
